Measured values: patent US5599789A, “Method for the treatment of tumours and sarcomas” (Amrad Corporation Limited, priority 1991, dated 1997)
pKd: −log10 of the molar value.

Columns and labels:
[1] = test system: LIF receptors on Ewing sarcoma cell line Al5; experiment: 125I-hLIF binding, Scatchard analysis, cloned line Al5; parameters: species or system human; conditions: Al5 cells, 3 hrs on ice, Scatchard slope, read-out: Equilibrium dissociation constant
Procedure: (§1) A cloned Ewing sarcoma cell line Al5 (7×10^6 per point) in 100 μl of RPMI-medium containing 10 mM Hepes buffer pH 7.4 and 10% v/v foetal calf serum were incubated with increasing concentrations of ^125 I-hLIF (E. coli derived) (5000-800,000 cpm: 100,000 cpm/ng) with or without 5 μg/ml of unlabelled hLIF for 3 hrs on ice. The incubation mixture was then layered over 180 μl cold foetal calf serum, centrifuged at top speed in an Eppendoff microfuge for 10 sec and the tip of the tube containing the cell pellet cut with a scalpel blade and removed for counting in a gamma counter.

[2] = test system: Ewing's Sarcoma cells; experiment: Colony formation in agar cultures, a number of different Ewing's cell lines (summary statements); format: cell-based, human
Text: (§2) The tumour cells were immobilised in 0.3% w/v agar containing Iscove's Modified Dulbecco's Medium (IMDM) and 10% v/v FCS. […] Cultures were scored for the presence of colonies (>40 cells) or clusters (<40 cells). The number of cells plated per culture ranged from 500 to 10,000 per ml. Colonies were counted on an Olympus dissecting microscope.

[3] = test system: LIF receptors on different Ewing sarcoma cells; experiment: 125I-hLIF binding, second independent Scatchard analysis; parameters: species or system human; conditions: read-out: Equilibrium dissociation constant
Procedure: as §1

[4] = test system: Ewing's Sarcoma cell line Cu-1; experiment: Colony formation in semi-solid agar cultures, Cu-1 cells; format: cell-based, human; conditions: Cu-1, 10,000 cells, day 18
Procedure: (§3) Tumour cells obtained from biopsy and bone marrow specimens from patients with Ewing's Sarcoma were used in these studies. Approval for this project has been obtained from the Ethics Committee of the Royal Children's Hospital.
(§4) Single cell suspensions of tumour cells were obtained by mechanical disruption with an 18G or 21G needle or by pipetting, followed by incubation with dispase II (Boehringer) at a concentration of 1.2 units per ml for 10 minutes at 37° C. Prior to the addition to agar-medium the cells were vortexed gently to prevent clumping.
(§5) Clonal cell lines were grown in Iscove's Modified Dulbecco's Medium (IMDM) supplemented with 10% v/v foetal calf serum (FCS; CSL Limited, Melbourne, Australia) and were passaged either weekly or twice weekly. The characteristics of the Ewing Sarcoma cell lines used herein as described below:
(§6) Cell lines derived from the above primary cell lines (Al and Cu) are identified by an Arabic numeral (e.g. Al-1, Al-5, Al-8 or Cu-1).
as §2
(§7) IL-1, IL-3, IL-4, IL-6, M-CSF, G-CSF, GM-CSF, Stem Cell Factor (SCF), TNFα, TGFα, TGFβ, EGF, aFGF, bFGF, NGF, IGF I, IGF II, PDGF and IFN-γ.
(§8) The recombinant human leukaemia inhibitory factor (LIF) was obtained from AMRAD Corporation Limited, Melbourne, Australia.

[5] = test system: Ewing's Sarcoma cell line Al (uncloned); experiment: Colony formation in semi-solid agar cultures, Al (uncloned) cells; format: cell-based, human; conditions: Al(uncloned), 5,000 cells, day 18
Procedure: as §3, §4, §5, §2, §7, §8

[6] = test system: Ewing's Sarcoma cell line Al-5; experiment: Colony formation in semi-solid agar cultures, Al-5 cells; format: cell-based, human; conditions: Al-5, 1,000 cells, day 18
Procedure: as §3, §4, §5, §6, §2, §7, §8

[7] = stimulus 100 ng, mean of duplicate colony counts

Substance: LIF: recombinant human leukaemia inhibitory factor (E. coli derived) from AMRAD Corporation Limited
- pKd [1]: 10.05
- Effect on colony counts ([2]; between 0.1 and 100 ng LIF per culture, agar cultures, different Ewing's cell lines): able to significantly reduce colony counts
- Magnitude of colony reduction relative to other growth factors tested ([2]; culture of Ewing's Sarcoma cells): greater than those induced by other growth factors tested
- Number of colonies compared to untreated controls ([2]; culture of Ewing's Sarcoma cells, dose-dependent): significantly reduces the number of colonies
- pKd [3]: 9.89
- Colonies/Cultures ([4]; stimulus 0.01 ng): 542
- Colonies/Cultures ([4]; stimulus 0.1 ng): 430
- Colonies/Cultures ([4]; stimulus 1 ng): 192
- Colonies/Cultures ([4]; stimulus 10 ng): 97
- Colonies/Cultures [4, 7]: 125
- Colonies/Cultures ([5]; stimulus 0.01 ng): 222
- Colonies/Cultures ([5]; stimulus 0.1 ng): 205
- Colonies/Cultures ([5]; stimulus 1 ng): 160
- Colonies/Cultures ([5]; stimulus 10 ng): 10
- Colonies/Cultures [5, 7]: 8
- Colonies/Cultures ([6]; stimulus 0.01 ng): 47
- Colonies/Cultures ([6]; stimulus 0.1 ng): 27
- Colonies/Cultures ([6]; stimulus 1 ng): 25
- Colonies/Cultures ([6]; stimulus 10 ng): 18
- Colonies/Cultures [6, 7]: 2
